Laboratory results from EP1750770B1, “USE OF ORGANO-SILICON COMPOUNDS FOR CO[…] TISSUES” (Exsymol, priority 2004, dated 2005).
Like-named read-outs stand apart in the source and are kept apart here. Blank lines part the entries; values can stand above or below the substance they belong to.

What was measured:
[1] = system: glucose-6-phosphate déshydrogénase; assay: Glucose-6-phosphate dehydrogenase activity in tissue extracts of the dermal implant zone (Test 1); assay type: in vivo, rats Hairless; conditions: once daily
Method: 0,8 ml d'extrait tissulaire ont été incubés avec 20 µl de solution à 2,4 mM de NADP et à 24,4 mM de glucose 6-phosphate (G6P) en tampon phosphate (0,1M pH 7,4). L'augmentation de densité optique (mD.O./min) et corrélée à la réduction du substrat a été suivie à 340 nm à 25°C.
(§1) L'action quantitative et qualitative des deux composés organo-siliciés sur des rats Hairless et les altérations d'organisation de leur matrice extra-cellulaire (MEC) cutanée a été évaluée, et de manière régiosélective. En effet, un volume dermique de 0,5 cm^3 environ a été prélevé puis remplacé chirurgicalement par un dispositif médical implantable, que sont les microéponges en polyvinylalcool. Ces dernières sont usuellement utilisées pour la transplantation de cellules (Mooney D.J., J. Biomed. Mat Res(1995), vol.29, pp.959) car biocompatibles, de haute porosité et capables d'absorber 98% de leur volume.
(§2) La re-colonisation de l'implant (ou dispositif médical implantable) par le tissu dermique est alors observée sous l'effet des composés organo-siliciés. […] Les composés organo-siliciés sont administrés à raison d'une fois par jour pendant 2 mois.
(§3) L'évaluation quantitative a été réalisée via une mesure des cinétiques des marqueurs d'activité tissulaire dans la zone implantée. Les marqueurs suivis ont été des marqueurs biologiques témoignant de l'état du tissu, à savoir les enzymes "collagénase" et "élastase" qui rendent compte, avec leurs activités, du turn-over des protéines de la matrice extracellulaire, et l'enzyme "G6PDH" dont l'activité est un marqueur du niveau énergétique des cellules (équilibre redox cellulaire). L'évaluation qualitative a, elle, été réalisée avec le prélèvement chirurgical d'une partie de cet implant à différent temps de l'expérimentation. Après fixation, des coupes de 5 µm et une coloration H.E ou Trichrome-Masson ont été réalisées, ainsi qu'une analyse histologique de l'organisation du collagène de la MEC.

élastase = assay: Elastase activity in tissue extracts of the dermal implant zone (Test 1); assay type: in vivo, rats Hairless; conditions: once daily, SalSi-3OH intradermal, HyalSi-3OH topical cream
Method: Du N-succinyl-Ala-Ala-Pro-Leu p-nitroanilide en solution dans un tampon Tris-HCl (10mM pH 8) à 0,5 g/l à été incubé à 37°C avec 0,2 ml d'extrait tissulaire dans un volume final de 1,2 ml pendant 5 heures. L'augmentation de densité optique (mD.O./min) et corrélée à la protéolyse du substrat a été suivie à […].
as §1, §2, §3

collagénase = assay: Collagenase activity in tissue extracts of the dermal polyvinyl alcohol microsponge implant zone (Test 1); assay type: in vivo, rats Hairless; conditions: once daily
Method: Une solution à 0,5 mg /ml de PZ-L Pro-L Leu-L Gly-L Pro-D Arg a été réalisée dans un tampon Tris-HCl (25 mM, pH 7,0; 2,5 mM de CaCl2). 0,5 ml de la solution de substrat ont été incubés à 37°C avec 200 µl d'extrait tissulaire pendant 2 h 30. A différents temps, 100 µl du milieu réactionnel ont été prélevés et ajoutés à 250 µl d'acide citrique à 0,5% (arrêt de la réaction) puis à 1,25 ml d'acétate d'éthyle. L'augmentation de densité optique (mD.O./min) et corrélée à la protéolyse du substrat a été suivie à 320 nm.
as §1, §2, §3

[2] = system: matrice extra-cellulaire (MEC) cutanée; assay: Qualitative evaluation: implant appearance and histological analysis of collagen organisation of the ECM (Test 1); assay type: in vivo, rats Hairless; conditions: once daily
Source text: as §1, §2, §3

[3] = immediately after the injection
[4] = system: rides "patte d'oie" et/ou intersourcilières; conditions: for échelle visuelle analogique, Front / échelle visuelle analogique, Pattes-d'oie: intradermal injections at J0, S1, S2, rated by volunteers; for amélioration du relief cutané: all injected sites
Source text: Les données obtenues à partir de l'échelle visuelle analogique ont fait l'objet d'une analyse de variance en mesures répétées sur le temps, suivie d'une analyse des contrastes.

[5] = week 1 post-implantation, SalSi-3OH 0,5% solution 0,2 ml intradermal, HyalSi-3OH 0,5% cream 100 mg topical

Substance: hyaluronate de monométhylsilanetriol [HyalSi-3OH]
Activité G6DPH ([1]; week 1 post-implantation): 8,2±1,9 mD.O./min/mg de prot.
Activité G6DPH ([1]; week 2 post-implantation): 13,8±1,5 mD.O./min/mg de prot.
Activité G6DPH ([1]; week 3 post-implantation): 25,1±4,6 mD.O./min/mg de prot.
Activité G6DPH ([1]; week 4 post-implantation): 46,8±7,6 mD.O./min/mg de prot.
Activité G6DPH ([1]; week 5 post-implantation): 37,5±6,2 mD.O./min/mg de prot.
Activité G6DPH ([1]; week 8 post-implantation): 7,3±2,4 mD.O./min/mg de prot.
Activité élastase (élastase; week 1 post-implantation): 3,4±0,5 mD.O./min/mg de prot.
Activité élastase (élastase; week 2 post-implantation): 7,8±2,2 mD.O./min/mg de prot.
Activité élastase (élastase; week 3 post-implantation): 10,5±2,9 mD.O./min/mg de prot.
Activité élastase (élastase; week 4 post-implantation): 9,4±2,4 mD.O./min/mg de prot.
Activité élastase (élastase; week 5 post-implantation): 5,6±1,1 mD.O./min/mg de prot.
Activité élastase (élastase; week 8 post-implantation): 2,4±0,9 mD.O./min/mg de prot.
Activité collagénase (collagénase; [5]): 3,4±0,3 mD.O./min/mg de prot.
Activité collagénase (collagénase; week 2 post-implantation): 5,9±0,7 mD.O./min/mg de prot.
Activité collagénase (collagénase; week 3 post-implantation): 12,0±1,3 mD.O./min/mg de prot.
Activité collagénase (collagénase; week 4 post-implantation): 14,1±3,1 mD.O./min/mg de prot.
Activité collagénase (collagénase; week 5 post-implantation): 7,3±1,6 mD.O./min/mg de prot.
Activité collagénase (collagénase; week 8 post-implantation): 3,5±1,4 mD.O./min/mg de prot.
Aspect implant + analyse histologique ([2]; week 1 post-implantation): début colonisation cellulaire
Aspect implant + analyse histologique ([2]; week 2 post-implantation): colonisation cellulaire (70 à 90%) + début formation MEC
Aspect implant + analyse histologique ([2]; week 3 post-implantation): formation MEC avec accumulation collagène non organisé
Aspect implant + analyse histologique ([2]; week 4 post-implantation): formation MEC avec présence collagène non organisé dans 30% des espaces de l'implant + collagène organisé dans 10% de l'implant
Aspect implant + analyse histologique ([2]; week 5 post-implantation): formation MEC avec présence collagène non organisé dans l'ensemble de l'implant + collagéne organisé dans 30% de l'implant
Aspect implant + analyse histologique ([2]; week 8 post-implantation): formation MEC dans l'ensemble de l'implant + collagène organisé dans 45% de l'implant

Activité G6DPH ([1]; week 1 post-implantation): 7,6±1,4 mD.O./min/mg de prot.
Activité G6DPH ([1]; week 2 post-implantation): 9,3±1,1 mD.O./min/mg de prot.
Activité G6DPH ([1]; week 3 post-implantation): 18,4±2,9 mD.O./min/mg de prot.
Activité G6DPH ([1]; week 4 post-implantation): 43,7±5,5 mD.O./min/mg de prot.
Activité G6DPH ([1]; week 5 post-implantation): 36,5±4,8 mD.O./min/mg de prot.
Activité G6DPH ([1]; week 8 post-implantation): 9,0±0,45 mD.O./min/mg de prot.
Activité élastase (élastase; week 1 post-implantation): 3,0±0,6 mD.O./min/mg de prot.
Activité élastase (élastase; week 2 post-implantation): 6,8±1,3 mD.O./min/mg de prot.
Activité élastase (élastase; week 3 post-implantation): 9,5±1,3 mD.O./min/mg de prot.
Activité élastase (élastase; week 4 post-implantation): 8,4±1,6 mD.O./min/mg de prot.
Activité élastase (élastase; week 5 post-implantation): 5,1±0,9 mD.O./min/mg de prot.
Activité élastase (élastase; week 8 post-implantation): 2,0±0,3 mD.O./min/mg de prot.
Activité collagénase (collagénase; [5]): 3,6±0,5 mD.O./min/mg de prot.
Activité collagénase (collagénase; week 2 post-implantation): 6,1±0,8 mD.O./min/mg de prot.
Activité collagénase (collagénase; week 3 post-implantation): 13±1,7 mD.O./min/mg de prot.
Activité collagénase (collagénase; week 4 post-implantation): 11,2±0,8 mD.O./min/mg de prot.
Activité collagénase (collagénase; week 5 post-implantation): 8,1±1,3 mD.O./min/mg de prot.
Activité collagénase (collagénase; week 8 post-implantation): 3,9±0,5 mD.O./min/mg de prot.
Substance: salicylate de monométhylsilanetriol [SalSi-3OH]
effet de comblement [3]: sans effet de comblement immédiatement après l'injection
échelle visuelle analogique, Front ([4]; S1): 18,67 ± 20,98 µm
échelle visuelle analogique, Pattes-d'oie ([4]; S1): 19,20 ± 19,14 µm
échelle visuelle analogique, Front ([4]; S2): 32,25 ± 23,23 µm
échelle visuelle analogique, Pattes-d'oie ([4]; S2): 31,23 ± 21,66 µm
échelle visuelle analogique, Front ([4]; S6): 35,33 ± 26,99 µm
échelle visuelle analogique, Pattes-d'oie ([4]; S6): 38,92 ± 25,97 µm
échelle visuelle analogique, Front ([4]; S12): 38,65 ± 25,85 µm
échelle visuelle analogique, Pattes-d'oie ([4]; S12): 41,63 ± 26,70 µm
échelle visuelle analogique, Front ([4]; S24): 39,55 ± 25,33 µm
échelle visuelle analogique, Pattes-d'oie ([4]; S24): 39,58 ± 24,89 µm
échelle visuelle analogique, Front ([4]; S36): 36,57 ± 24,55 µm
échelle visuelle analogique, Pattes-d'oie ([4]; S36): 39,52 ± 25,22 µm
échelle visuelle analogique, Front ([4]; S52): 34,58 ± 25,54 µm
échelle visuelle analogique, Pattes-d'oie ([4]; S52): 38,61 ± 26,10 µm
amélioration du relief cutané ([4]; at 6 months): se maintient
amélioration du relief cutané ([4]; at 12 months): régresse très légèrement
amélioration du relief cutané ([4]; mean, after 3 months): 40%
amélioration du relief cutané (significance) ([4]; one year after the first injection): significative sur tous les sites
Aspect implant + analyse histologique ([2]; week 1 post-implantation): début colonisation cellulaire
Aspect implant + analyse histologique ([2]; week 2 post-implantation): colonisation cellulaire (70à 90%) + début formation MEC
Aspect implant + analyse histologique ([2]; week 3 post-implantation): formation MEC avec présence collagène non organisé
Aspect implant + analyse histologique ([2]; week 4 post-implantation): formation MEC avec présence collagène non organisé dans 20% des espaces de l'implant + collagène organisé dans 20% du l'implant
Aspect implant + analyse histologique ([2]; week 5 post-implantation): formation MEC avec présence collagène non organisédans l'ensemble de l'implant + collagène organisé dans 50% de l'implant
Aspect implant + analyse histologique ([2]; week 8 post-implantation): formation MEC dans l'ensemble de l'implant + collagène organisé dans 70% de l'implant
